Data set [1] can be described thus: Precipitation/recovery from a copper(II) chloride solution by electrolysis with cation exchange membrane, then acidification (Experimental Example 7). The settings on record: electrolysis starting pH 4.1, 60 min, 250-300 mA. The procedure:
The recovery of 4-dodecyl-3,6,9-tri(carboxymethyl)-3,6,9-triazaundecane diacid was performed in a two-step procedure.
In the first stage metal ions was removed from the solution by electrolysis at a specified pH and current intensity. The equipment to perform the electrolysis consisted of a Manson EP-60.1 rectifier and two platinum electrodes in form of a spring (anode) and a basket (cathode). The electrodes were separated with a cationic exchange membrane (CMI-7000 Cation exchange membranes—Membranes International INC.)
To a solution of 4-dodecyl-3,6,9-tri(carboxymethyl)-3,6,9-triazaundecane diacid and copper in the form of copper(II) chloride (30 ml, in a molar ratio of 1.2:1=sequestering agent: copper(II) chloride, [Cu^2+]=900 ppm, pH=4.5) in a beaker was sodium sulphate (corresponding to 0.1 M), in order to receive wished current intensity. The pH of the starting solution was 4.1. The total volume of the solution was 300 ml. The electrolysis was performed during 60 min. at a current intensity of 250-300 mA.
In the second step the electrolysis solution was acidified with 1 M aqueous hydrogen chloride to pH=2.4. The precipitated material was removed by filtration (glass filter—Schott u.Gen Mainz 1G2) and dried in a vacuum chamber at 0.8 mbar for 22 hours.
198.7 mg precipitate was obtained. Organic analyses were made with the aid of an ESI-MS (recorded on a Micromass Quattro II mass spectrometer coupled with a Harvard Apparatus Pump 11 syringe pump directly into the ESI source of the mass spectrometer at a flow rate of 6 μL/min. The data was processed using MassLynx 4.0 software) in positive and negative mode, and NMR with a Varian 500 instrument. The precipitate contained exclusively of 4-dodecyl-3,6,9-tri(carboxymethyl)-3,6,9-triazaundecane diacid. Metal analyses were made with the aid of a Perkin-Elmer AA300 atomic absorption spectrometer.

Data set [2] is described as follows: Precipitation/recovery of sequestering agent from a copper(II) chloride solution by acidification to pH 1.8. As to conditions: acidified to pH=1.8, 5.66 mM sequestrent, 300 ppm copper. The procedure:
A stock solution of 4-dodecyl-3,6,9-tri(carboxymethyl)-3,6,9-triazaundecane diacid and copper in the form of copper(II) chloride (20 ml, in a molar ratio of 1.2:1=sequestering agent: copper(II) chloride, [Cu^2+]=900 ppm, pH=4.5) was diluted with milliQ-water to a total volume of 60 ml in a beaker, corresponding to a solution with an initial sequestrent- and copper concentration of 5.66 mM and 300 ppm, respectively. To this solution 2 M aqueous hydrogen chloride was added under magnetical stirring at room temperature to pH=1.8. A light blue precipitate was removed by filtration (P3 glass filter) leaving a colourless transparent filtrate. The light blue precipitate was dried in a vacuum chamber at 0.8 mbar for 19 hours resulting in a light blue solid.
270 mg precipitate was obtained. Organic analyses were made with the aid of an ESI-MS (recorded on a Micromass Quattro II mass spectrometer coupled with a Harvard Apparatus Pump 11 syringe pump directly into the ESI source of the mass spectrometer at a flow rate of 6 μl/min. The data was processed using MassLynx 4.0 software) in positive and negative mode.
The precipitate contained exclusively of 4-dodecyl-3,6,9-tri(carboxymethyl)-3,6,9-triazaundecane diacid and complexed sequestering agent. […] Metal analyses were made with the aid of a Perkin-Elmer AA300 atomic absorption spectrometer. […]

Data set [3] can be described thus: Solubility of sequestering agent in a copper(II) chloride solution on stepwise acidification. As to conditions: 5.66 mM sequestrent, 300 ppm copper, room temperature. It is filed as physicochemical. The procedure:
A stock solution of 4-dodecyl-3,6,9-tri(carboxymethyl)-3,6,9-triazaundecane diacid and copper in the form of copper(II) chloride (20 ml, in a molar ratio of 1.2:1=sequestering agent: copper(II) chloride, [Cu^2+]=900 ppm, pH=4.5) was diluted with milliQ-water to a total volume of 60 ml in a beaker, corresponding to a solution with an initial sequestrent and copper concentration of 5.66 mM and 300 ppm, respectively. To this solution 2 M aqueous hydrogen chloride was added stepwise, under magnetical stirring at room temperature, to follow the solubility behavior of 4-dodecyl-3,6,9-tri(carboxymethyl)-3,6,9-triazaundecane diacid.

A short description of data set [4]: Precipitation/recovery from a copper(II) sulfate solution by electrolysis, then acidification (Experimental Example 6). The settings on record: electrolysis pH 12, 50 min, 300-350 mA. The procedure: The recovery of 2-dodecyl-3-carboxymethyl-3-azapentane diacid was performed in a two-step procedure.
In the first stage metal ions was removed from the solution by electrolysis at a specified pH and current intensity: The equipment to perform the electrolysis consisted of a Manson EP-601 rectifier and two platinum electrodes in form of a spring (anode) and a basket (cathode).
To a solution of 2-dodecyl-3-carboxymethyl-3-azapentane diacid and copper in the form of copper(II) sulfate (30 ml, in a molar ratio of 1.2:1=sequestering agent: copper(II) sulfate, [sequestrent]=10.5 mM, [Cu^2+]=655 ppm) in a beaker was sodium sulphate (corresponding to 50 mg/l) added, in order to receive wished current intensity. Solutions of 1 M aqueous sodium hydroxide was added to adjust the pH to 12. The total volume of the solution was 150 ml. The electrolysis was performed during 50 min. at a current intensity of 300-350 mA.
In the second step the electrolysis solution was acidified with 1 M aqueous hydrogen chloride to pH=2.4. The precipitated material was removed by filtration (glass filter—Schott u.Gen Mainz 1G2) and dried in a vacuum chamber at 0.8 mbar for 24 hours.
99.6 mg precipitate was obtained. Organic analyses were made with the aid of an ESI-MS (recorded on a Micromass Quattro II mass spectrometer coupled with a Harvard Apparatus Pump 11 syringe pump directly into the ESI source of the mass spectrometer at a flow rate of 6 μl/min. The data was processed using MassLynx 4.0 software) in positive and negative mode, and NMR with a Varian 500 instrument. The precipitate contained exclusively of 2-dodecyl-3-carboxymethyl-3-azapentane diacid.
Metal analyses were made with the aid of a Perkin-Elmer AA300 atomic absorption spectrometer.

A short description of data set [5]: Flotation of copper ions with sequestering agent in a flotation cell, metal analysis of foam. The settings on record: 1 mg copper as copper sulphate, sequestering agent:metal 1.2:1, pH 5.5, flotation approx. 30 min.
A short description of data set [6]: Flotation of manganese ions with sequestering agent in a flotation cell, metal analysis of foam. The settings on record: 1 mg manganese as manganese sulphate, sequestering agent:metal 1.2:1, pH 5.5, flotation approx. 30 min. The source says:
In order to investigate the separability of a sequestering agent according to the invention a small flotation cell was used. This flotation cell has a volume of approximately 1.6 l, a height of 315 mm and an inner diameter of 80 mm. Compressed air used to form the foam is led through a porous sintered glass filter of diameter 60 mm with a nominal porosity of 10-16 μm (“porosity 4”) mounted at the bottom of the flotation cell. At the top of the flotation cell a cylinder of an inner diameter of 30 mm and a height of 415 mm, with an outlet placed at 72 mm from the bottom, is mounted. The outlet is used to collect the foam and thereby the chelate according to the invention. At the top of the latter cylinder an adjustable valve is mounted to be able to better control the foaming and to direct the foam to the outlet.
was prepared from 2-aminoethanol, tert-butyl bromoacetate and tert-butyl 2-aminotetradecanoate as main ingredients using conventional techniques and was therafter mixed in 500 ml deionised water with 1 mg of manganese in the form of manganese sulphate (in a molar ratio of 1.2:1=sequestering agent: manganese sulphate) and a flotation agent (N,N-dimethyldodecylamine N-oxide, in a molar ratio of 10:1=flotation agent:sequestering agent).
The pH-value of the solution was adjusted to pH 5.5 with 0.1 M sodium hydroxide solution or 0.1 M hydrogen chloride solution. […]

With `CCCCCCCCCCCCC(CN(CCN(CC(=O)O)CC(=O)O)CC(=O)O)N(CC(=O)O)CC(=O)O` (stereo not drawn) [4-dodecyl-3,6,9-tri(carboxymethyl)-3,6,9-triazaundecane diacid], the “copper found on the cathode” value in data set [1] was determined as 99.8%. In addition, the “copper found in the filtrate” value in data set [1] (then acidified to pH=2.4) came to 0.1%; in data set [2], 1%. Moreover, the “copper found in the precipitate” value in data set [1] (then acidified to pH=2.4) stood at 0.1%; in data set [2] it was 99%. Moreover, the solubility observation entry in data set [3] (pH<0.5) was “A clear blue aqueous solution”; in data set [3] (pH=2.8-0.5) it was “Precipitated material is observed”; in data set [3] (pH=4.5-2.8), “A clear blue aqueous solution”.

`CCCCCCCCCCCCC(C(=O)O)N(CC(=O)O)CC(=O)O` (stereo not drawn) [2-dodecyl-3-carboxymethyl-3-azapentane diacid]: the “copper found on the cathode” value in data set [4] is given as 99.4%. For the same compound, in data set [4] (then acidified to pH=2.4), the “copper found in the filtrate” value is reported as 0.1% and the “copper found in the precipitate” value was determined as 0.5%. For the same compound, the “added copper found in the foam” value in data set [5] is given as roughly 70%. Besides, the “added manganese found in the foam” value in data set [6] is given as “About 10%”.

Consider `CCCCCCCCCCCCC(C(=O)O)N(CCN(CC(=O)O)CC(=O)O)CC(=O)O` (stereo not drawn) [2-dodecyl-3,6-di(carboxymethyl)-3,6-diazaoctane diacid], for which the “added copper found in the foam” value in data set [5] is reported as roughly 65%. Also, in data set [6], the “added manganese found in the foam” value is “About 35%”.

Values taken from patent publication US20120318750A1, “METHODS AND COMPOSITIONS FOR COMPLEX BINDING OF METAL IONS” (ChemseQ International AB, priority 2009, published 2012).
